Reference: patent US9241492B2, “Bioactive acid agrichemical compositions and use thereof” (Sciessent LLC, priority 2007, dated 2016)

Test system: E. amylovora 153N
Test: Fire blight on Snow Drift crabapple trees (Example 311)
Type: in vivo
Details: rate 5 lbs/a (2.27 kg/a)
Description: A study of the bioefficacy of the various agrichemical compositions, including bioactive acid solutions and blends thereof with an antibiotic agrichemical, were evaluated to assess their bioefficacy against fire blight on crabapples. The study was conducted on 5 year old Snow Drift crabapple trees, with each of the compositions being applied to ten trees in two-subplots of five trees, four different times: at 100% bloom—day 1, a second application was made on day 4, a third on day 11 and a final treatment on day 19. The trees were inoculated with E. amylovora 153N at a concentration of 4×10^6 cells per milliliter on day 1, following drying of the treatment, with the inoculation being repeated on day 13. Evaluation for fire blight was completed on 100 blossoms for each of the subplots on day 12, day 19 and day 27. Additionally, the incidence of shoot infection and the length of cankers were evaluated on day 63.
The test compositions were prepared by forming solutions of the bioactive agents. Two different dilutions of the MI2 bioactive were evaluated, the first employing 94.46 ml/gallon (25 ml/l) of water (5 ppm of each metal) and the second 188.9 ml/gallon (50 ml/l) of water (10 ppm of each metal). A streptomycin product (17% concentrated) was diluted at a rate of 0.049 lbs/gallon ([…]) (200 ppm). Finally, copper hydroxide was diluted at a rate of 1 lb/gallon (119.8 g/l). Each of the compositions and blends were spray applied at a rate of 50 gallons (189.3 l) pre acre. The results are presented as the mean of the counts.

[Cu+2].[OH-].[OH-] [copper hydroxide]
Blossom Incidence Day 12 (day 12, mean of counts per 100 blossoms): 3.1
Blossom Incidence Day 19 (day 19): 2.2
Blossom Incidence Day 27 (day 27): 9.0
Canker Size Day 63 (day 63): 0.0 cm
Shoot Incidence Day 63 (day 63): 1.0
